Test results: ChEMBL document CHEMBL3098111, “Discovery of 2,5-diarylnicotinamides as selective orexin-2 receptor antagonists (2-SORAs)” (Bioorg Med Chem Lett, 2013)

Tests used:
Rattus norvegicus [1] = organism: Rattus norvegicus; assay: Inhibition of rat strychnine-sensitive glycine receptor at 10 uM relative to control
[2] = molecular target: D(2) dopamine receptor (Homo sapiens) (UniProt P14416); assay: Inhibition of human dopamine D2S receptor at 10 uM relative to control
[3] = molecular target: Cysteinyl leukotriene receptor 1 (Homo sapiens) (UniProt Q9Y271); assay: Inhibition of human CysLT1 receptor at 10 uM relative to control
Oryctolagus cuniculus = organism: Oryctolagus cuniculus; assay: Inhibition of rabbit monoamine transporter at 10 nM relative to control
Cricetinae = assay: Inhibition of hamster ATP-sensitive potassium channel at 10 uM relative to control
[4] = molecular target: D(1B) dopamine receptor (Homo sapiens) (UniProt P21918); assay: Inhibition of human dopamine D5 receptor at 10 uM relative to control
[5] = molecular target: Adenosine receptor A2a (Homo sapiens) (UniProt P29274); assay: Inhibition of human adenosine A2A receptor at 10 uM relative to control
Caspase-1 (Homo sapiens) = Caspase-1 (Homo sapiens) (UniProt P29466); assay: Inhibition of human caspase 1 at 10 uM relative to control
[6] = molecular target: Epidermal growth factor receptor (Homo sapiens) (UniProt P00533); assay: Inhibition of human EGF receptor at 10 uM relative to control
[7] = molecular target: Somatostatin receptor type 4 (Homo sapiens) (UniProt P31391); assay: Inhibition of human SST4 receptor at 10 uM relative to control
[8] = molecular target: Melanocortin receptor 3 (Homo sapiens) (UniProt P41968); assay: Inhibition of human MC3 receptor at 10 uM relative to control
[9] = molecular target: Nitric oxide synthase 1 (Rattus norvegicus) (UniProt P29476); assay: Inhibition of rat nNOS at 10 uM relative to control
Rattus norvegicus [10] = organism: Rattus norvegicus; assay: Inhibition of rat glutamate receptor at 10 uM relative to control
[11] = molecular target: Galanin receptor type 2 (Homo sapiens) (UniProt O43603); assay: Inhibition of human GAL2 receptor at 10 uM relative to control
[12] = molecular target: Pro-epidermal growth factor (Homo sapiens) (UniProt P01133); assay: Inhibition of human EGF at 10 uM relative to control
Mu-type opioid receptor [13] = molecular target: T1, Mu-type opioid receptor (Homo sapiens, UniProt P35372); assay: Inhibition of human mu opioid receptor at 10 uM relative to control
[14] = molecular target: Cannabinoid receptor 1 (Homo sapiens) (UniProt P21554); assay: Inhibition of human CB1 receptor at 10 uM relative to control
Rattus norvegicus [15] = organism: Rattus norvegicus; assay: Inhibition of rat bombesin receptor at 10 uM relative to control
[16] = molecular target: Interstitial collagenase (Homo sapiens) (UniProt P03956); assay: Inhibition of human MMP-1 at 10 uM relative to control
[17] = molecular target: Sodium-dependent dopamine transporter (Homo sapiens) (UniProt Q01959); assay: Inhibition of human DAT at 10 uM relative to control
Mu-type opioid receptor [18] = molecular target: T1, Mu-type opioid receptor; assay: Inhibition of human mu opioid receptor at 0.1 uM relative to control
[19] = molecular target: Adrenergic receptor alpha-2 (Rattus norvegicus) (UniProt P22086+P19328+P22909); assay: Inhibition of rat alpha2 adrenergic receptor at 10 uM relative to control
[20] = molecular target: Alpha-2B adrenergic receptor (Homo sapiens) (UniProt P18089); assay: Inhibition of human alpha2B adrenergic receptor at 10 uM relative to control

T1 sequence (P35372 whole entry): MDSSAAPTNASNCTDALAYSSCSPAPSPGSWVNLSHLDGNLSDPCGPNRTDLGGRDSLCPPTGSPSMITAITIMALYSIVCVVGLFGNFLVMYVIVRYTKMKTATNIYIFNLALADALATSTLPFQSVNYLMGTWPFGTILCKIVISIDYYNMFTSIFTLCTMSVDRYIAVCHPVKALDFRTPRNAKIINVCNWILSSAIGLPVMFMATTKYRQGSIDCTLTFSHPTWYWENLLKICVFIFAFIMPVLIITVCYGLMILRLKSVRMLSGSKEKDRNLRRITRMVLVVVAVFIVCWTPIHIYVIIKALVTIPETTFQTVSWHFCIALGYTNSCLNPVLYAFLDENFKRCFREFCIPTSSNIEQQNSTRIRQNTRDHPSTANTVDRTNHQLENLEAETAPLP
D(2) dopamine receptor (Homo sapiens), sequence (P14416 whole entry): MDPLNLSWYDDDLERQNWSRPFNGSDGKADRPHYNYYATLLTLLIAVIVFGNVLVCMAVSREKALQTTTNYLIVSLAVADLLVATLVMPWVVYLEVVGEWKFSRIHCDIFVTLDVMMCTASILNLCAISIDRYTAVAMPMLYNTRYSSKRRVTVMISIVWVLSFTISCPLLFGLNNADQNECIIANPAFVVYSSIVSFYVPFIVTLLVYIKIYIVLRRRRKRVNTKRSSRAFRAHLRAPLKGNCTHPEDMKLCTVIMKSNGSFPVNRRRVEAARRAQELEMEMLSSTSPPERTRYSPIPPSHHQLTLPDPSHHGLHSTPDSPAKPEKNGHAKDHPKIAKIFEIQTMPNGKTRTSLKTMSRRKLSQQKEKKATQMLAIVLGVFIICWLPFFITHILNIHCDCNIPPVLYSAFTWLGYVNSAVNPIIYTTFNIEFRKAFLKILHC
Cannabinoid receptor 1 (Homo sapiens), sequence (P21554 whole entry): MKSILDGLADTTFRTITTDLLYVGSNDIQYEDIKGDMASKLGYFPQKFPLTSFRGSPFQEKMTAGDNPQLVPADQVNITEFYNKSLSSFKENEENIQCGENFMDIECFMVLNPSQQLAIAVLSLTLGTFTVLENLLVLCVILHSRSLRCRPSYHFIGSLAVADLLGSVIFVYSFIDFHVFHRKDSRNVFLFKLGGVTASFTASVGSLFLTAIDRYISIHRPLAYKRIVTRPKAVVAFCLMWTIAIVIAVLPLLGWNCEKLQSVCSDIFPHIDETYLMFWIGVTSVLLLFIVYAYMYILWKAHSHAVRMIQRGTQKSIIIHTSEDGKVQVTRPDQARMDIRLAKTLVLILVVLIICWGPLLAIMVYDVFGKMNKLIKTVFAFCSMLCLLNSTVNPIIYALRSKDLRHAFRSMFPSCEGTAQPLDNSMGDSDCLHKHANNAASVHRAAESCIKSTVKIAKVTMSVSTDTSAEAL
Sodium-dependent dopamine transporter (Homo sapiens), sequence (Q01959 whole entry): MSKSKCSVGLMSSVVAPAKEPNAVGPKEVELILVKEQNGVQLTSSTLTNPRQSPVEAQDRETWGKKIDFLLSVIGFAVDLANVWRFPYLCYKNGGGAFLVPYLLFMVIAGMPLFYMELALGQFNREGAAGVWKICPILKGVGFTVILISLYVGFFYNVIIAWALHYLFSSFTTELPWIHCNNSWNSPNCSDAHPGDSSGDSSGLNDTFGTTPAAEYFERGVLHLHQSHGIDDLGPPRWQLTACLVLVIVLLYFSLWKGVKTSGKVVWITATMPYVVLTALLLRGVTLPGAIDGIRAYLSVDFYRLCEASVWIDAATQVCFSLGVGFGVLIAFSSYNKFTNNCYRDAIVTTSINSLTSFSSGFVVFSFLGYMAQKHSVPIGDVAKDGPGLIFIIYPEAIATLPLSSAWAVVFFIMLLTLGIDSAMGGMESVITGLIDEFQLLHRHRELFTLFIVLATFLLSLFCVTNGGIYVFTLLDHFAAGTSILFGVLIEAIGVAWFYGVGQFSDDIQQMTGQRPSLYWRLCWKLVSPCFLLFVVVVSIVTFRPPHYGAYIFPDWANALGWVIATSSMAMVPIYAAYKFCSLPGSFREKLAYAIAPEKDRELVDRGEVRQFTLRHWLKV
Nitric oxide synthase 1 (Rattus norvegicus), sequence (P29476 whole entry): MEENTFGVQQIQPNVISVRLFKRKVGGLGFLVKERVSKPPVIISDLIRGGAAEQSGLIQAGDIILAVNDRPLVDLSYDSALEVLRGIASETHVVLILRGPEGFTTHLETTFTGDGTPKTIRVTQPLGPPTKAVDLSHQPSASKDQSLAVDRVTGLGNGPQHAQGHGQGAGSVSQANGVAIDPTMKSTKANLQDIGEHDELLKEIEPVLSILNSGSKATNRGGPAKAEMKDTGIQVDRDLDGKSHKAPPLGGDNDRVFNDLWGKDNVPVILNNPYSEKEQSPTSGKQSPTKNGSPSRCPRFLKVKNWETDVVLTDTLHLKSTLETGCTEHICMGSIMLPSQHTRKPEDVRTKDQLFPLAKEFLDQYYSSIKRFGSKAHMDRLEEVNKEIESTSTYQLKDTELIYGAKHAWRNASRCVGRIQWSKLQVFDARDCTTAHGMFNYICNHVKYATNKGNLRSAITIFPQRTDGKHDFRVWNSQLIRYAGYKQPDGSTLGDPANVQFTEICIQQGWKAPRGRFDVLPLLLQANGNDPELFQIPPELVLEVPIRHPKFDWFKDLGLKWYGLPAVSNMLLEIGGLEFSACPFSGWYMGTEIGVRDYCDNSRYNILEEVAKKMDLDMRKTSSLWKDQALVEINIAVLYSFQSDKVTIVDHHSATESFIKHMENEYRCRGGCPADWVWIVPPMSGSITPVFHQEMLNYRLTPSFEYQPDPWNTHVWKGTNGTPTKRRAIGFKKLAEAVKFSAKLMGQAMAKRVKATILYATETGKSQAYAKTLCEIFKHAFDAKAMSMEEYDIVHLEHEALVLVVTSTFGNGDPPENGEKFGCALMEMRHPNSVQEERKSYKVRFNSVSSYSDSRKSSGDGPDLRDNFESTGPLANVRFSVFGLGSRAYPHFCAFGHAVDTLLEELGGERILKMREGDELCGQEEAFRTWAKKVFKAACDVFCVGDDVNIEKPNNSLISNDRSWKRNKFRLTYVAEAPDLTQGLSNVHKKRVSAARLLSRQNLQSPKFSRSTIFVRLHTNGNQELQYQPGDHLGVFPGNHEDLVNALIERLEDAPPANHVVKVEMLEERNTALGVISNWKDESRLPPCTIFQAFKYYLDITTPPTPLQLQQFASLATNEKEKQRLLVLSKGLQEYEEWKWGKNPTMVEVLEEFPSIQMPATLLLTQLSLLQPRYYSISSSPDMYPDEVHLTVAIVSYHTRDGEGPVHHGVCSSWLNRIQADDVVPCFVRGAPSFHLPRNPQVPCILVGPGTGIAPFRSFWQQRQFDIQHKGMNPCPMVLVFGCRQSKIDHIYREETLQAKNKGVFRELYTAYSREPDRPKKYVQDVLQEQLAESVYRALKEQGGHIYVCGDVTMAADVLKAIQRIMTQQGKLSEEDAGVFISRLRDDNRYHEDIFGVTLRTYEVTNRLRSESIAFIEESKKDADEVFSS
Galanin receptor type 2 (Homo sapiens), sequence (O43603 whole entry): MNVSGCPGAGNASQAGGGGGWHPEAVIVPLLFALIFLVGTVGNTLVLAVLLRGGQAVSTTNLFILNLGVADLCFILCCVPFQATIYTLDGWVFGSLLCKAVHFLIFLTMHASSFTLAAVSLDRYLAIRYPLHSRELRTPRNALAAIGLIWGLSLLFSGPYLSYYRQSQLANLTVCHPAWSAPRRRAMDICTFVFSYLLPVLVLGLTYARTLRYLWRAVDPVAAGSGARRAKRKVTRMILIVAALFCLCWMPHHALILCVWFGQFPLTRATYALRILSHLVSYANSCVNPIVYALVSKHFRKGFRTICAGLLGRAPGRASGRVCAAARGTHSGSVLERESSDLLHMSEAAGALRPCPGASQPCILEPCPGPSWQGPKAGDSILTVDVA
Caspase-1 (Homo sapiens), sequence (P29466 120-297 limits assumed): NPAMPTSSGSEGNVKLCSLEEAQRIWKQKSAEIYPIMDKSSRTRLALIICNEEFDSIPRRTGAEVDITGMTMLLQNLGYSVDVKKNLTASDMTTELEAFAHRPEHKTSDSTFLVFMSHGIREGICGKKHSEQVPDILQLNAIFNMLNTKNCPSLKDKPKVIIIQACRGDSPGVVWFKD
Caspase-1 (Homo sapiens), sequence (P29466 317-404 limits assumed): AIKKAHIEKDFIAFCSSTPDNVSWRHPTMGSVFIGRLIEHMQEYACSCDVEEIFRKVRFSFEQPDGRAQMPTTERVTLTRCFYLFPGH
Melanocortin receptor 3 (Homo sapiens), sequence (P41968 whole entry): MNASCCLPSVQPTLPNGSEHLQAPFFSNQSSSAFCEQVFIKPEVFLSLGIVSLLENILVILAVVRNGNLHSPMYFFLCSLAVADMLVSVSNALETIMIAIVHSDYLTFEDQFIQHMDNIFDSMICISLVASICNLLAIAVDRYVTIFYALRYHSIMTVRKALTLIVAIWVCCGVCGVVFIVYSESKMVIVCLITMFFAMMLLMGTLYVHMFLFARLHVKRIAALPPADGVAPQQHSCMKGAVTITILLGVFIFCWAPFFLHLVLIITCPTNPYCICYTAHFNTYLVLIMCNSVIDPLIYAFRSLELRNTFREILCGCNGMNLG
Somatostatin receptor type 4 (Homo sapiens), sequence (P31391 whole entry): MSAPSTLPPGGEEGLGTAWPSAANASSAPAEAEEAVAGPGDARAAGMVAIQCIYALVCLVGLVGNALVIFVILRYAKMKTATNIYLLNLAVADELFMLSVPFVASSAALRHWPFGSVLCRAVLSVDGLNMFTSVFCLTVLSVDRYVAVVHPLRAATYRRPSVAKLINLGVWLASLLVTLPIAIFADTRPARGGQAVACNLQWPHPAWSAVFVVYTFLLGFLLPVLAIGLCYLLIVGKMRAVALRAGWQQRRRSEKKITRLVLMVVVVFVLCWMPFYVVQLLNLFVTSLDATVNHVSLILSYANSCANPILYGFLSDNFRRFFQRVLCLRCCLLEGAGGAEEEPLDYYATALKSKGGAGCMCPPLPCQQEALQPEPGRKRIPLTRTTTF

inhibition (Rattus norvegicus [1]): -5%
inhibition [2]: -2%
inhibition [3]: 9%
inhibition (Oryctolagus cuniculus): 2%
inhibition (Cricetinae): 0%
inhibition [4]: 3%
inhibition [5]: 8%
inhibition (Caspase-1 (Homo sapiens)): 4%
inhibition [6]: 10%
inhibition [7]: 5%
inhibition [8]: 2%
inhibition [9]: -1%
inhibition (Rattus norvegicus [10]): -6%
inhibition [11]: 6%
inhibition [12]: 7%
inhibition (Mu-type opioid receptor [13]): 62%
inhibition [14]: 10%
inhibition (Rattus norvegicus [15]): 3%
inhibition [16]: 4%
inhibition [17]: -7%
inhibition (Mu-type opioid receptor [18]): -3%
inhibition [19]: 37%
inhibition [20]: 34%
Structure (SMILES): COc1ccc(CNC(=O)c2cc(-c3cc(Cl)cc(Cl)c3)cnc2-c2cccnc2)cc1OC
